Reference: US20230278972A1, “SUBSTITUTED HALOALKYL SULFONANILIDE HERBICIDES” (FMC Corporation, priority 2020, published 2023)

Key:
Assay type in all cases: in vivo
[1] = system: Foxtail, Giant (giant foxtail, Setaria faberi); assay: Test A preemergence, Foxtail, Giant; details: Preemergence; for Plant response rating, Foxtail, Giant: 0 to 100 scale (0 no effect, 100 complete control); for Foxtail, Giant plant response rating: visual injury on 0 to 100 scale (0 no effect, 100 complete control), approximately 10 days
Summary of the method: (§1)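 Compounds in non-phytotoxic solvent with surfactant. Soil: loam/sand. Preemergence via directed soil spray after seeding; postemergence on seedlings 2–10 cm, one- to two-leaf.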

[2] = system: blackgrass (Alopecurus myosuroides); assay: Test A postemergence, blackgrass; details: Postemergence, 0 to 100 scale (0 no effect, 100 complete control); for Plant response rating, Blackgrass: 125 g ai/ha; for Blackgrass plant response rating: 500 g ai/ha, visual injury vs untreated controls after approx. 10 days
Summary of the method: as §1

corn (Zea mays) = assay: Test A postemergence, corn; details: Postemergence, 0 to 100 scale (0 no effect, 100 complete control); for Plant response rating, Corn: 125 g ai/ha; for Corn plant response rating: 500 g ai/ha, visual injury vs untreated controls after approx. 10 days
Summary of the method: as §1

[3] = system: wheat (Triticum aestivum); assay: Test A postemergence, wheat; details: Postemergence, 0 to 100 scale (0 no effect, 100 complete control); for Plant response rating, Wheat: 125 g ai/ha; for Wheat plant response rating: 500 g ai/ha, visual injury vs untreated controls after approx. 10 days
Summary of the method: (§2)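 Preemergence: pigweed seeds in loam soil–sand blend received a directed soil spray of test chemicals in a non-phytotoxic solvent with surfactant. Postemergence: barnyardgrass, wheat and galium in pots of the same soil, 2 to 10 cm tall at one- to two-leaf stage, sprayed with the same formulation.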

[4] = system: ragweed (common ragweed, Ambrosia artemisiifolia); assay: Test A postemergence, ragweed; details: Postemergence, 0 to 100 scale (0 no effect, 100 complete control); for Plant response rating, Ragweed: 125 g ai/ha; for Ragweed plant response rating: 500 g ai/ha, visual injury vs untreated controls after approx. 10 days
Summary of the method: as §1

[5] = system: Ryegrass, Italian (Italian ryegrass, Lolium multiflorum); assay: Test A postemergence, Ryegrass, Italian; details: Postemergence, 0 to 100 scale (0 no effect, 100 complete control); for Plant response rating, Ryegrass, Italian: 125 g ai/ha; for Ryegrass, Italian plant response rating: 500 g ai/ha, visual injury vs untreated controls after approx. 10 days
Summary of the method: as §1

[6] = system: galium (catchweed bedstraw, Galium aparine); assay: Test A postemergence, galium; details: Postemergence, 0 to 100 scale (0 no effect, 100 complete control); for Plant response rating, Galium: 125 g ai/ha; for Galium plant response rating: 500 g ai/ha, visual injury vs untreated controls after approx. 10 days
Summary of the method: as §2

[7] = system: barnyardgrass (Echinochloa crus-galli); assay: Test A preemergence, barnyardgrass; details: Preemergence, 0 to 100 scale (0 no effect, 100 complete control)
Summary of the method: as §1

[8] = system: ragweed (common ragweed, Ambrosia artemisiifolia); assay: Test A preemergence, ragweed; details: Preemergence; for Plant response rating, Ragweed: 0 to 100 scale (0 no effect, 100 complete control); for Ragweed plant response rating: visual injury on 0 to 100 scale (0 no effect, 100 complete control), approximately 10 days
Summary of the method: as §1

[9] = system: Foxtail, Giant (giant foxtail, Setaria faberi); assay: Test A postemergence, Foxtail, Giant; details: Postemergence, 0 to 100 scale (0 no effect, 100 complete control); for Plant response rating, Foxtail, Giant: 125 g ai/ha; for Foxtail, Giant plant response rating: 500 g ai/ha, visual injury vs untreated controls after approx. 10 days
Summary of the method: as §1

[10] = system: pigweed (Amaranthus retroflexus); assay: Test A preemergence, pigweed; details: for Plant response rating, Pigweed: 0 to 100 scale (0 no effect, 100 complete control); for Pigweed plant response rating: visual injury on 0 to 100 scale (0 no effect, 100 complete control), approximately 10 days
Summary of the method: as §2

kochia (Bassia scoparia) [11] = assay: Test A preemergence, kochia; details: Preemergence; for Plant response rating, Kochia: 0 to 100 scale (0 no effect, 100 complete control); for Kochia plant response rating: visual injury on 0 to 100 scale (0 no effect, 100 complete control), approximately 10 days
Summary of the method: as §1

[12] = system: barnyardgrass (Echinochloa crus-galli); assay: Test A postemergence, barnyardgrass; details: Postemergence, 0 to 100 scale (0 no effect, 100 complete control); for Plant response rating, Barnyardgrass: 125 g ai/ha; for Barnyardgrass plant response rating: 500 g ai/ha, visual injury vs untreated controls after approx. 10 days
Summary of the method: as §2

kochia (Bassia scoparia) [13] = assay: Test A postemergence, kochia; details: Postemergence, 0 to 100 scale (0 no effect, 100 complete control); for Plant response rating, Kochia: 125 g ai/ha; for Kochia plant response rating: 500 g ai/ha, visual injury vs untreated controls after approx. 10 days
Summary of the method: as §1

[14] = system: pigweed (Amaranthus retroflexus); assay: Test A postemergence, pigweed; details: Postemergence, 0 to 100 scale (0 no effect, 100 complete control); for Plant response rating, Pigweed: 125 g ai/ha; for Pigweed plant response rating: 500 g ai/ha, visual injury vs untreated controls after approx. 10 days
Summary of the method: as §1

[15] = system: Ryegrass, Italian (Italian ryegrass, Lolium multiflorum); assay: Test A preemergence, Ryegrass, Italian; details: Preemergence; for Plant response rating, Ryegrass, Italian: 0 to 100 scale (0 no effect, 100 complete control); for Ryegrass, Italian plant response rating: visual injury on 0 to 100 scale (0 no effect, 100 complete control), approximately 10 days
Summary of the method: as §1

[16] = 125 g ai/ha, visual injury, approx. 10 days

SMILES	Plant response rating, Foxtail, Giant [1, 16]	Plant response rating, Blackgrass [2]	Blackgrass plant response rating [2]	Plant response rating, Corn (corn (Zea mays))	Corn plant response rating (corn (Zea mays))	Plant response rating, Wheat [3]	Wheat plant response rating [3]	Plant response rating, Ragweed [4]	Ragweed plant response rating [4]	Plant response rating, Ryegrass, Italian [5]	Ryegrass, Italian plant response rating [5]	Plant response rating, Galium [6]	Galium plant response rating [6]	Plant response rating, Barnyardgrass ([7]; 500 g ai/ha)	Plant response rating, Ragweed [8, 16]	Plant response rating, Foxtail, Giant [9]	Foxtail, Giant plant response rating [9]	Plant response rating, Pigweed [10, 16]	Plant response rating, Kochia (kochia (Bassia scoparia) [11]; [16])	Plant response rating, Barnyardgrass [12]	further results
Cc1cc(Cl)c(N(S(=O)(=O)C(F)(F)F)S(=O)(=O)C(F)(F)F)cc1C1=NOC(C)(C)C1 [Compound 222]	40	20	20	0	0	0	70	50	90	0	0	90	90	90	60	0	10	50	0	10	Plant response rating, Foxtail, Giant ([1]; 500 g ai/ha): 50; Plant response rating, Ragweed ([8]; 500 g ai/ha): 90; Plant response rating, Pigweed ([10]; 500 g ai/ha): 100; Plant response rating, Kochia (kochia (Bassia scoparia) [11]; 500 g ai/ha): 40; Barnyardgrass plant response rating [12]: 70; Plant response rating, Kochia (kochia (Bassia scoparia) [13]): 10; Kochia plant response rating (kochia (Bassia scoparia) [13]): 50; Plant response rating, Pigweed [14]: 20; Pigweed plant response rating [14]: 40; Plant response rating, Ryegrass, Italian [15, 16]: 30; Plant response rating, Ryegrass, Italian ([15]; 500 g ai/ha): 80
Cc1cc(C)c(C(=O)N2CCC3(CCCC3)CC2)cc1NS(=O)(=O)C(F)(F)F [Compound 223]	60	20	0	0	0	0	0	0	20	0	0	40	40	50	0	0	0	10	0	10	Plant response rating, Foxtail, Giant ([1]; 500 g ai/ha): 100; Plant response rating, Barnyardgrass [7, 16]: 30; Plant response rating, Ragweed ([8]; 500 g ai/ha): 50; Plant response rating, Pigweed ([10]; 500 g ai/ha): 90; Plant response rating, Kochia (kochia (Bassia scoparia) [11]; 500 g ai/ha): 20; Barnyardgrass plant response rating [12]: 20; Plant response rating, Kochia (kochia (Bassia scoparia) [13]): 0; Kochia plant response rating (kochia (Bassia scoparia) [13]): 0; Plant response rating, Pigweed [14]: 40; Pigweed plant response rating [14]: 30; Plant response rating, Ryegrass, Italian [15, 16]: 30; Plant response rating, Ryegrass, Italian ([15]; 500 g ai/ha): 80
Cc1cc(C)c(C(=O)N2CCC3(CCCC3)C2)cc1NS(=O)(=O)C(F)(F)F [Compound 225]	90	0	20	0	0	0	0	20	40	60	40	50	80	90	30	0	0	70	0	0	Plant response rating, Foxtail, Giant ([1]; 500 g ai/ha): 100; Plant response rating, Barnyardgrass [7, 16]: 70; Plant response rating, Ragweed ([8]; 500 g ai/ha): 90; Plant response rating, Pigweed ([10]; 500 g ai/ha): 100; Plant response rating, Kochia (kochia (Bassia scoparia) [11]; 500 g ai/ha): 40; Barnyardgrass plant response rating [12]: 10; Plant response rating, Kochia (kochia (Bassia scoparia) [13]): 0; Kochia plant response rating (kochia (Bassia scoparia) [13]): 10; Plant response rating, Pigweed [14]: 90; Pigweed plant response rating [14]: 30; Plant response rating, Ryegrass, Italian [15, 16]: 70; Plant response rating, Ryegrass, Italian ([15]; 500 g ai/ha): 100
Cc1cc(C)c(C(=O)N2CCC(S(C)(=O)=O)CC2)cc1NS(=O)(=O)C(F)(F)F [Compound 233]	40	0	40	0	0	0	40	0	0	0	0	80	90	30	0	0	0	60	0	0	Foxtail, Giant plant response rating ([1]; 500 g ai/ha): 100; Plant response rating, Barnyardgrass [7, 16]: 0; Ragweed plant response rating ([8]; 500 g ai/ha): 30; Pigweed plant response rating ([10]; 500 g ai/ha): 90; Kochia plant response rating (kochia (Bassia scoparia) [11]; 500 g ai/ha): 80; Barnyardgrass plant response rating [12]: 0; Plant response rating, Kochia (kochia (Bassia scoparia) [13]): 0; Kochia plant response rating (kochia (Bassia scoparia) [13]): 30; Plant response rating, Pigweed [14]: 30; Pigweed plant response rating [14]: 60; Plant response rating, Ryegrass, Italian [15, 16]: 20; Ryegrass, Italian plant response rating ([15]; 500 g ai/ha): 70
Cc1cc(C)c(C(=O)N2CCC(CC(F)(F)F)CC2)cc1NS(=O)(=O)C(F)(F)F [Compound 234]	50	0	0	0	0	0	0	30	50	0	0	10	80	80	80	0	50	50	0	60	Foxtail, Giant plant response rating ([1]; 500 g ai/ha): 50; Plant response rating, Barnyardgrass [7, 16]: 80; Ragweed plant response rating ([8]; 500 g ai/ha): 90; Pigweed plant response rating ([10]; 500 g ai/ha): 100; Kochia plant response rating (kochia (Bassia scoparia) [11]; 500 g ai/ha): 30; Barnyardgrass plant response rating [12]: 70; Plant response rating, Kochia (kochia (Bassia scoparia) [13]): 0; Kochia plant response rating (kochia (Bassia scoparia) [13]): 0; Plant response rating, Pigweed [14]: 30; Pigweed plant response rating [14]: 60; Plant response rating, Ryegrass, Italian [15, 16]: 20; Ryegrass, Italian plant response rating ([15]; 500 g ai/ha): 50
Cc1cc(F)c(C(=O)N2CC(C)OC(C)C2)cc1N(S(=O)(=O)C(F)(F)F)S(=O)(=O)C(F)(F)F (stereo not shown) [Compound 235]	10	0	20	0	30	20	60	60	90	30	60	70	70	0	40	20	30	30	30	0	Foxtail, Giant plant response rating ([1]; 500 g ai/ha): 10; Plant response rating, Barnyardgrass [7, 16]: 0; Ragweed plant response rating ([8]; 500 g ai/ha): 80; Pigweed plant response rating ([10]; 500 g ai/ha): 80; Kochia plant response rating (kochia (Bassia scoparia) [11]; 500 g ai/ha): 50; Barnyardgrass plant response rating [12]: 60; Plant response rating, Kochia (kochia (Bassia scoparia) [13]): 10; Kochia plant response rating (kochia (Bassia scoparia) [13]): 30; Plant response rating, Pigweed [14]: 30; Pigweed plant response rating [14]: 30; Plant response rating, Ryegrass, Italian [15, 16]: 50; Ryegrass, Italian plant response rating ([15]; 500 g ai/ha): 90
Cc1cc(F)c(C(=O)N2CCC(C#N)CC2)cc1NS(=O)(=O)C(F)(F)F [Compound 236]	30	0	20	0	20	0	0	40	80	30	60	40	70	0	50	20	80	60	20	50	Foxtail, Giant plant response rating ([1]; 500 g ai/ha): 60; Plant response rating, Barnyardgrass [7, 16]: 0; Ragweed plant response rating ([8]; 500 g ai/ha): 80; Pigweed plant response rating ([10]; 500 g ai/ha): 90; Kochia plant response rating (kochia (Bassia scoparia) [11]; 500 g ai/ha): 70; Barnyardgrass plant response rating [12]: 60; Plant response rating, Kochia (kochia (Bassia scoparia) [13]): 30; Kochia plant response rating (kochia (Bassia scoparia) [13]): 50; Plant response rating, Pigweed [14]: 40; Pigweed plant response rating [14]: 60; Plant response rating, Ryegrass, Italian [15, 16]: 20; Ryegrass, Italian plant response rating ([15]; 500 g ai/ha): 60
